Test results: ChEMBL document CHEMBL4184155, “Resveratrol analogues like piceatannol are potent antioxidants as quantitatively demonstrated through the high scavenging ability against reactive oxygen species and methyl radical” (Bioorg Med Chem Lett, 2017)

Columns and labels:
Assay type in all cases: functional
[1] = Antioxidant activity assessed as Trolox equivalents of photolysis-induced peroxyl scavenging activity using CYPMPO spin trap by ESR spectroscopic method
[2] = Antioxidant activity assessed as relative scavenging rate constant for photolysis-induced peroxyl scavenging activity by measuring Kaox/Kst ratio using CYPMPO spin trap by ESR spectroscopic method
[3] = Antioxidant activity assessed as Trolox equivalents of photolysis-induced alkoxyl scavenging activity using DMPO spin trap by ESR spectroscopic method
[4] = Antioxidant activity assessed as Trolox equivalents of photolysis-induced hydroxyl radical scavenging activity using DMPO spin trap by ESR spectroscopic method
[5] = Antioxidant activity assessed as Trolox equivalents of photolysis-induced methyl radical scavenging activity using DMPO spin trap by ESR spectroscopic method
[6] = Antioxidant activity assessed as Trolox equivalents of photolysis-induced singlet oxygen scavenging activity using 4-HO-TEMP spin trap by ESR spectroscopic method
[7] = Antioxidant activity assessed as relative scavenging rate constant for photolysis-induced super-oxide anion scavenging activity by measuring Kaox/Kst ratio using CYPMPO spin trap by ESR spectroscopic method
[8] = Antioxidant activity assessed as relative scavenging rate constant for photolysis-induced methyl radical scavenging activity by measuring Kaox/Kst ratio using DMPO spin trap by ESR spectroscopic method
[9] = Antioxidant activity assessed as relative scavenging rate constant for photolysis-induced alkoxyl scavenging activity by measuring Kaox/Kst ratio using DMPO spin trap by ESR spectroscopic method
[10] = Antioxidant activity assessed as Trolox equivalents of photolysis-induced superoxide anion scavenging activity using CYPMPO spin trap by ESR spectroscopic method
[11] = Antioxidant activity assessed as relative scavenging rate constant for photolysis-induced singlet oxygen scavenging activity by measuring Kaox/Kst ratio using 4-HO-TEMP spin trap by ESR spectroscopic method
[12] = Antioxidant activity assessed as relative scavenging rate constant for photolysis-induced hydroxyl radical scavenging activity by measuring Kaox/Kst ratio using DMPO spin trap by ESR spectroscopic method
[13] = Antioxidant activity assessed as rate constant for photolysis-induced methyl radical scavenging activity using DMPO spin trap by ESR spectroscopic method
[14] = Antioxidant activity assessed as rate constant for singlet oxygen scavenging activity in ethanol-water (1:1 v/v) mixture using phosphorescence-based single-photon-counting method
[15] = Antioxidant activity assessed as rate constant for singlet oxygen scavenging activity in methanol solution by EPR spectroscopic method
[16] = Antioxidant activity assessed as rate constant for singlet oxygen scavenging activity in aqueous solution by EPR spectroscopic method

Row | Structure (SMILES) | Activity [1] [equiv] | Ratio [2] | Activity [3] [equiv] | Activity [4] [equiv] | Activity [5] [equiv] | Activity [6] [equiv] | Ratio [7] | Ratio [8] | Ratio [9] | Activity [10] [equiv] | Ratio [11] | Ratio [12] | K [13] | K [14] [×10⁷ /M/s] | K [15] [×10⁷ /M/s] | K [16] [×10⁹ /M/s]
1 | COc1cc(/C=C/c2ccc(O)cc2)cc(OC)c1 | 0.88 | 24.8 | 0.11 | 0.47 | -0 | 2 | 35.6 | -0 | 13 | 0.42 | 4610 | 14.9 | – | – | – | –
2 | Oc1cc(O)cc(/C=C/c2ccc(O)c(O)c2)c1 | 7.7 | 218 | 0.36 | 2.78 | 0.11 | 7 | 156 | 5.65 | 41.2 | 1.86 | 16600 | 88.8 | 7.9 ×10⁷ /M/s | – | – | –
3 | COc1ccc(/C=C/c2cc(O)cc(O)c2)cc1O | 0.71 | 21.1 | 0.1 | 0.71 | 0.04 | 3.7 | 70.5 | 2.21 | 11.9 | 0.84 | 8780 | 22.6 | 3.1 ×10⁷ /M/s | – | – | –
4 | Cc1c(C)c2c(c(C)c1O)CCC(C)(C(=O)O)O2 (centres undefined) | – | 28.3 | – | – | – | – | 83.9 | 50 | 115 | – | 2360 | 31.9 | 7 ×10⁸ /M/s | 6.22 | – | –
5 | Oc1ccc(/C=C/c2cc(O)cc(O)c2)cc1 | 0.69 | 19.6 | 0.2 | 0.5 | -0 | 3 | 33.4 | -0 | 23.3 | 0.4 | 7080 | 15.8 | – | – | 2.55 | 3.92
6 | Oc1cc(O)cc(/C=C/c2ccc(O)cc2O)c1 | 0.67 | 18.9 | 0.17 | 0.68 | 0.08 | 3.4 | 37.4 | 3.98 | 19 | 0.45 | 7960 | 21.8 | – | – | – | –
7 | COc1cc(/C=C/c2ccc(OC)c(OC)c2)cc(OC)c1 | 0.3 | 8.52 | 0.21 | 0.8 | -0 | 0.11 | -0 | -0 | 24.4 | -0 | 268 | 25.6 | – | – | – | –
